“Also recorded” adds a separate entry of the source. Structures can show the parent of a compound that is named as a salt.
What was measured:
[1] = molecular target: T1, neuronal nicotinic acetylcholine receptors (Rattus norvegicus, UniProt P09483+P12390); assay: [3H]-cytisine binding to neuronal nicotinic acetylcholine receptors, whole rat brain membranes; settings: [3H]-cytisine 1.25 nM, whole rat brain membranes; read-out: [3H] CYT Ki
T1 construct: crude synaptic membrane preparations from whole rat brain; from tissue; host or cells: whole rat brain, crude synaptic membranes
How it was run: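 Crude synaptic membranes from whole rat brain (125-150 μg protein) incubated with test compound and 1.25 nM [3H]-cytisine for 60 min at 4 °C in Tris-Cl buffer pH 7.4 with Na/K/Mg/Ca salts. Filtration through PEI-soaked filters; nonspecific binding with 10 μM (−)-nicotine; values as percentage of total binding.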

[2] = molecular target: T2, peripheral ganglionic receptors (Homo sapiens, UniProt P30926+P32297); assay: 86Rb+ flux activation in IMR-32 human neuroblastoma cells; format: cell-based; settings: 1 μM compound, % of maximum response to (S)-nicotine
T2 construct: Cells of the IMR-32 human neuroblastoma clonal cell line (ATCC, Rockville, Md.); host or cells: IMR-32 human neuroblastoma cells
Experimental: Protocol for the Determination of Ability of Nicotinic Acetylcholine Receptor Ligands to Activate Peripheral Ganglionic Receptors
Cells of the IMR-32 human neuroblastoma clonal cell line (ATCC, Rockville, Md.) were maintained in a log phase of growth according to established procedures. Experimental cells were seeded at a density of 500,000 cells/mL into a 24-well tissue culture dish. Plated cells were allowed to proliferate for at least 48 hours before loading with 2 μCi/mL of ^86Rb^+ (35 Ci/mmol) overnight at 37° C. The ^86Rb^+ efflux assays were performed according to previously published protocols (Lukas, R. J., J. Pharmacol. Exp. Ther., 265: 294-302, 1993) except serum-free Dulbecco's Modified Eagle's Medium was used during the ^86Rb^+ loading, rinsing, and agonist-induced efflux steps. Data reflect the activation of ^86Rb^+ flux at a concentration of 1 μM, and reflect the response as a percentage of the maximum response elicited by (S)-nicotine.

mice [3] = format: in vivo; settings: mouse, i.p.
Experimental: Motor coordination was assessed using an accelerating rotarod apparatus (Omnitech Electronics, Inc., Columbus, Ohio). Locomotor activity was monitored under dim light in a 41×41 cm. open field using a photobeam activity system (San Diego Instruments, San Diego, Calif.). The mouse was placed on a 3.5 cm diameter rod which increased in speed from 0 to 40 rpm over 120 seconds. The time required for the mouse to fall from the rod was recorded with a maximum score of 120 seconds. Twenty-five min after receiving an i.p. injection, the mice were placed in the open field for 5 min. After removal from the open field (i.e., 30 min after injection), they were immediately tested on the rotarod. Body temperature was assessed using a probe inserted 3 cm into the rectum approximately 35 min after injection. (YSI Tele-Thermometer, Yellow Springs Instrument Co., Inc., Yellow Springs, Ohio). Diazepam (10.5 μmol/kg, i.p.) was used as a positive control.

mice [4] = assay: Mouse Hot Plate Paradigm; format: in vivo; settings: ip, 0.5 h, i.p., 30 minutes prior to testing, 55° C., read-out: MED Hot plate model (μmol/kg, i.p.)
rats [5] = assay: Chung Model of Neuropathic Pain; format: in vivo; settings: rat, 50% threshold to VonFrey hairs
rat spinal cord cultures = assay: Neuroprotection against substance P or glutamate toxicity in primary spinal cord cultures (LDH release); format: cell-based; settings: rat spinal cord cultures
mice [6] = settings: mouse, in vivo, ip
Experimental: Compounds were co-mixed in a syringe, and co-administered via the intraperitoneal route 30 min prior to testing in the mouse hot-plate paradigm as indicated above. Separate groups of animals (n=7-8/group) were used for each dose group.

rats [7] = assay: Chung Model of Neuropathic Pain following repeated dosing; format: in vivo; settings: rat
Experimental: Animals were surgically prepared as described above for the Chung model. For assessment of each test compound, two treatment groups (6 animals each) were established. One group was injected (i.p.) with test compound twice daily for 5 days, and the other group was injected on the same schedule with saline. Responses to von Frey hairs were assessed as described above both before, and 15 minutes after, injection on the first 2 days and also on the 5th day. The saline-treatment group was given saline for the first 4 days and on the morning of the 5th day, but received a challenge of the test compound in the afternoon of the fifth day.

[8] = molecular target: neuromuscular junction nicotinic acetylcholine receptor (Tetronarce californica, UniProt P02710+P02714+P02718); assay: biochemical; format: binding, Torpedo Californica
rats [9] = assay: Carrageenan paw edema model; format: in vivo; settings: rat, i.p.
rats [10] = assay: Formalin Model of Persistent Pain; format: in vivo; settings: rat, oral, 0.1-0.3 umol/kg, 15 minutes prior to formalin, second phase

T1 sequence (P09483 31-630): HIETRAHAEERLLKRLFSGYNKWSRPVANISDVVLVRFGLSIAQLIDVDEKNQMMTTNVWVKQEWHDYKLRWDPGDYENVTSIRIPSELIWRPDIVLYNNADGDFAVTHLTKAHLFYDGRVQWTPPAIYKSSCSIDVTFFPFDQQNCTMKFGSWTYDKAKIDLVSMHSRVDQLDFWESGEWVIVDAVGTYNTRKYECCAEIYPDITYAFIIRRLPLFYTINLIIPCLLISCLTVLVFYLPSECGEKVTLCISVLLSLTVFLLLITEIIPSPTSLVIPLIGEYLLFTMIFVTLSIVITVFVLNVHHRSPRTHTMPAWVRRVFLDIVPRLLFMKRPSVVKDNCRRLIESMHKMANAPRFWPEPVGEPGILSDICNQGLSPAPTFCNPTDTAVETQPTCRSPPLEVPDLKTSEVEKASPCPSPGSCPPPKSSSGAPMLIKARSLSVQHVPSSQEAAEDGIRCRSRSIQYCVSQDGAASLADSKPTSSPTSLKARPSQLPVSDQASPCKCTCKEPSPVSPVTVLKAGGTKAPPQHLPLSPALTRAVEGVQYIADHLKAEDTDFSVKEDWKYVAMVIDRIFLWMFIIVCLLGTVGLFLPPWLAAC
T1 sequence (P12390 25-500): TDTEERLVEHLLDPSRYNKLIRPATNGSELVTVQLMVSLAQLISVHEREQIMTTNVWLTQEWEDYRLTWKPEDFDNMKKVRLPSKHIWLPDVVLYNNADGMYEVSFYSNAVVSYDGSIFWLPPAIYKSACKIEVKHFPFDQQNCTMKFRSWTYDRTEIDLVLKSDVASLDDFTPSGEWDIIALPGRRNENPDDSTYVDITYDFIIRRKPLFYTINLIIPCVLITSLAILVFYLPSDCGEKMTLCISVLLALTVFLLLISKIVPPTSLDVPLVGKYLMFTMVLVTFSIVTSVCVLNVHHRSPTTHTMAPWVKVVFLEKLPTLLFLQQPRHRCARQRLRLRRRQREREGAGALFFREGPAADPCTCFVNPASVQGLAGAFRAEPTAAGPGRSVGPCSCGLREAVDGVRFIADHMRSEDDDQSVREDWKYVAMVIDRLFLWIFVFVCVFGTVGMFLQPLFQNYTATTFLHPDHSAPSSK
T2 sequence (P32297 32-505): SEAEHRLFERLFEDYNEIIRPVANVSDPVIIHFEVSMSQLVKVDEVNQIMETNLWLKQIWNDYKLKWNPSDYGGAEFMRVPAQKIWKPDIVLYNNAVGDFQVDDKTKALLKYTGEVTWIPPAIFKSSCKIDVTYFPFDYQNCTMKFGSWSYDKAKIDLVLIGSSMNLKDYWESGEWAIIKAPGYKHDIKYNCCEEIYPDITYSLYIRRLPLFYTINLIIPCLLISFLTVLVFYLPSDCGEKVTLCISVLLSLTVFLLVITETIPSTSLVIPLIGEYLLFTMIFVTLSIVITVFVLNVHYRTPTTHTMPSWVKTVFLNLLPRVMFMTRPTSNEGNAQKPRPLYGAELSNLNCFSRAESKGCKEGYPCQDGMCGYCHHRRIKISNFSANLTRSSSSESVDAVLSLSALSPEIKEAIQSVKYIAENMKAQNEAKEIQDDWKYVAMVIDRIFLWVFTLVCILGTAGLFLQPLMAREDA
T2 sequence (P30926 22-498): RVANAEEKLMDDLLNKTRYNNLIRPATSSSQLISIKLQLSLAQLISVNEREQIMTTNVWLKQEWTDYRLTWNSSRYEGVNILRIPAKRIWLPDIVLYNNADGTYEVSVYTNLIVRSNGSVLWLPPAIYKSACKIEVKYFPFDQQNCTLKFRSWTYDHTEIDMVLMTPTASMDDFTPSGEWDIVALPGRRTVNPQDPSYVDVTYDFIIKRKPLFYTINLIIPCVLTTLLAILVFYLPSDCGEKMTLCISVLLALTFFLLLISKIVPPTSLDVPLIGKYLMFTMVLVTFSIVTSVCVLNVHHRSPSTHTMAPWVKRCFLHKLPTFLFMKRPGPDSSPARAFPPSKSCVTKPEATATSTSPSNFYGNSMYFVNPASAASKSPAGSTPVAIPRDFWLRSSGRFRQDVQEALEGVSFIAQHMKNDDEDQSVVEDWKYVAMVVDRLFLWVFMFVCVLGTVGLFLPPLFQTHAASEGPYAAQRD
Chain of neuromuscular junction nicotinic acetylcholine receptor (P02714 18-506): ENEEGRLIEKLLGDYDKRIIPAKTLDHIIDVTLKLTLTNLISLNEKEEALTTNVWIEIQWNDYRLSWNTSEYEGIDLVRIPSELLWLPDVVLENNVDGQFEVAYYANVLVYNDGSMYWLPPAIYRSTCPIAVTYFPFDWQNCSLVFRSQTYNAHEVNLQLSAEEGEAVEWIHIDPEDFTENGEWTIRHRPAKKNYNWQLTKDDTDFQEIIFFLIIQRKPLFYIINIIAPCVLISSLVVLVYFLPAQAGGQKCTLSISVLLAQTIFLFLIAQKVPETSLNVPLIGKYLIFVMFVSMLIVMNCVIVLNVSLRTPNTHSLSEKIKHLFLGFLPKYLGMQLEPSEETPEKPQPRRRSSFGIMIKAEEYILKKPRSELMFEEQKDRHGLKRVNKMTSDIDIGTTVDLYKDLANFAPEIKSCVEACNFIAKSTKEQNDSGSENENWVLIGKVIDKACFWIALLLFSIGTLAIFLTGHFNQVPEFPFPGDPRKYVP
Chain of neuromuscular junction nicotinic acetylcholine receptor (P02710 25-461): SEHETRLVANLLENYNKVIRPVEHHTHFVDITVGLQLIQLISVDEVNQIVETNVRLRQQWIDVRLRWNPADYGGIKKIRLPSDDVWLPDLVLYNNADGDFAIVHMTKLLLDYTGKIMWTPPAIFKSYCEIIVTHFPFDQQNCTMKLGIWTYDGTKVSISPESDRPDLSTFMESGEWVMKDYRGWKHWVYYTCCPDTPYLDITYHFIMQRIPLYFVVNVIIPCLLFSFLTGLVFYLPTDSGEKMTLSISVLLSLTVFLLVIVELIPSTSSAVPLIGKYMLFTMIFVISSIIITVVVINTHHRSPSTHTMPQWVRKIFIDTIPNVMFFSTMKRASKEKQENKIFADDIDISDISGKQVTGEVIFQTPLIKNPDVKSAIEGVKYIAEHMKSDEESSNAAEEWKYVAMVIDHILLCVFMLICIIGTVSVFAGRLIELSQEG
Chain of neuromuscular junction nicotinic acetylcholine receptor (P02712 25-493, further chain): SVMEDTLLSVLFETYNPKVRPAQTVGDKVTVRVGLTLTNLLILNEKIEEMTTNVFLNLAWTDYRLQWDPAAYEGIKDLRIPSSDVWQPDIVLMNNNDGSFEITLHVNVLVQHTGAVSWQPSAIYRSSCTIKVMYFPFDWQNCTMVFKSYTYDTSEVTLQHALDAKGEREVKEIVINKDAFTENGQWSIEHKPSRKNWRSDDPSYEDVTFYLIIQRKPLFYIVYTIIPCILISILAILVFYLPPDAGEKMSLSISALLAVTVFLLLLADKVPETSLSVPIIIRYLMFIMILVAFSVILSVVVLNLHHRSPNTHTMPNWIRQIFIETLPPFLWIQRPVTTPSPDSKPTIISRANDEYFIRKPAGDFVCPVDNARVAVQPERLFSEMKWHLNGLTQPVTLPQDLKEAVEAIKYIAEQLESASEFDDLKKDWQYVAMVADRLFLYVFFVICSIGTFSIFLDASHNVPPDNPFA
Chain of neuromuscular junction nicotinic acetylcholine receptor (P02718 22-522): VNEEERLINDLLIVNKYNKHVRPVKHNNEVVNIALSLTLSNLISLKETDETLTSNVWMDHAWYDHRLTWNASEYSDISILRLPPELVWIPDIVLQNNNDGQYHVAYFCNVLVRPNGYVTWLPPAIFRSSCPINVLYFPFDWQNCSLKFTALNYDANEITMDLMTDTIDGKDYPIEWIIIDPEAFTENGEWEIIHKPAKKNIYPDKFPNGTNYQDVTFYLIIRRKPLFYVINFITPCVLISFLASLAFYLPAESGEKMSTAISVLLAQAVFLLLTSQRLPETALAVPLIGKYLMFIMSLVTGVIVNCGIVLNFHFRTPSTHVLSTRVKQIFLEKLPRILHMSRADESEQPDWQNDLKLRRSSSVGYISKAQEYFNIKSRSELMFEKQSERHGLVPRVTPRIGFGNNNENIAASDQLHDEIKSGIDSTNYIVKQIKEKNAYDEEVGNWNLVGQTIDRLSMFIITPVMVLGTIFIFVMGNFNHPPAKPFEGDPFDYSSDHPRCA

Fc1ccc(OC[C@@H]2CCN2)cn1 [Example 9, 5-(2S)-Azetidinylmethyloxy)-2-fluoropyridine dibenzoate]
Ki [1]: 0.16 nM | IMR-32 % maximal nicotine response at 1 μM Cmpd conc'n [2]: 103% | dose showing rotarod impairments (mice [3]; in 2 of 3 experiments): 0.62 µmol/kg | minimal effective dose (mice [4]): 0.62 µmol/kg

Fc1ccc(OCC2CCN2)cn1 [Example 8, 5-(2R)-Azetidinylmethyloxy)-2-fluoropyridine dibenzoate]
Ki [1]: 0.06 nM | MED Chung model (μmol/kg, i.p.) (rats [5]): 0.62 µmol/kg | IMR-32 % maximal nicotine response at 1 μM Cmpd conc'n [2]: 46% | dose at which a rotarod effect was reached (mice [3]): 19 | minimal effective dose (mice [4]): 1.9 µmol/kg

Clc1ccc(OC[C@H]2CCN2)cn1 [Example 4, 5-((2R)-Azetidinylmethyloxy)-2-chloropyridine hydrochloride]
Ki [1]: 0.05 nM | MED Chung model (μmol/kg, i.p.) (rats [5]): 0.3 µmol/kg | protection against SP- and Glu-induced neurotoxicity (rat spinal cord cultures; SP 30 μM or Glu 300 μM, hydrochloride): protects against SP-induced neurotoxicity; also recorded: reduces both SP and Glu-induced neurotoxicity | EC50 (rat spinal cord cultures; SP and Glu-induced neurotoxicity): 10000 nM | antinociceptive activity combined with effective doses of morphine (mice [6]): enhanced antinociceptive activity | antinociceptive activity combined with subthreshold doses of morphine (mice [6]): can produce effective antinociceptive activity | antinociceptive effects when coadministered with morphine (mice [6]): produced effective antinociceptive effects | IMR-32 % maximal nicotine response at 1 μM Cmpd conc'n [2]: 97% | anti-allodynic effects during each test session (rats [7]; 0.3 μmol/kg, i.p., b.i.d., 5 days): Significant anti-allodynic effects | anti-allodynic effect following repeated dosing (rats [7]; in vivo, ip): does not decrease following repeated dosing | Ki [8]: 16600 nM | reduced affinity for the neuromuscular junction nicotinic acetylcholine receptor [8]: 12.8 fold | ED30 reduction of carrageenan-induced paw edema (rats [9]): 0.21 µmol/kg | efficacy to reduce paw edema compared with dexamethasone (rats [9]; hydrochloride): as effective as dexamethansone; also recorded: as efficacious as dexamethasone | minimal effective dose (mice [4]): 0.62 µmol/kg | antinociceptive effects in the Formalin Model (rats [10]): produced significant antinociceptive effects

Source: US6403575B1, “3-Pyridyl enantiomers and their use as analgesics” (Abbott Laboratories, priority 1996, dated 2002)
